Data as given in US12048686B2, “Compositions and methods for activating NRF2-dependent gene expression” (The University of Chicago, priority 2018, dated 2024).

Assays:
GAPDH = GAPDH (Homo sapiens, UniProt P04406); assay: GAPDH equilibrium in the GAPDH/PGK1 coupled assay; assay type: biochemical; conditions: without PGK1
Text: FIG. 6A-D. CBR-470-1 inhibits PGK1 in vitro and in situ. (a) Schematic of the GAPDH/PGK1 coupled assay. Pre-equilibration of the GAPDH reaction (top left) results in an NAD^+/NADH equilibrium, which upon addition of PGK1 and ADP pulls the reaction to the right producing more NADH. Monitoring NADH absorbance after addition of PGK1 (bottom right) can be used to monitor PGK1 activity in the forward direction (right). […] (c, d) Relative level of central metabolites in IMR32 cells treated with viral knockdown of PGK1 for 72 hours (c) (n=4) and with CBR-470-1 relative DMSO alone for the indicative times (d) (n=3). Each metabolite is normalized to the control condition at each time point. Data shown represent mean±SEM of biologically independent samples.
Recombinant PGK1 assay. PGK1 enzymatic activity in the forward direction was measured with a coupled enzymatic assay^34. Three PGK1 conditions were prepared by dissolving recombinant PGK1 in potassium phosphate buffer (10 mM KH2PO4, 10 mM MgSO4, pH 7.0), and transferring the aliquots of PGK1 solution to the microtubes being treated with same amount of DMSO and indicated concentrations of CBR-470-1. Final concentration of PGK1 is 20 ng/mL and DMSO is 1% for each sample. […] The change in absorbance at 340 nm at room temperature was measured every 20 seconds for 45 minutes, by Tecan Infinite M200 plate reader. […]

20 line panel = assay: Viability in 20 cell line panel correlated with CCLE mRNA levels; assay type: cell-based
Experimental: FIG. 36A-B. Viability assays performed in each cell line with compound treatment with CBR-470-1. Concentrations ranging from 0.1 to 30 micromolar for 48 hr. Viability was measured using Cell titer glo ATP quantification assay. Representative curves for three cell lines at 48 are shown on the left in (A). Table of 20 cell line IC50 values are shown in (B).
It was analyzed whether 1,3-BPG, which is directly metabolized by PGK1, could be involved in signaling to the KEAP1-NRF2 pathway via phosphoglyceryl-lysine (pgK) modification of KEAP1. […] Viability assays were performed in IMR32, OVCAR3, and A549 cell lines with compound treatment with CBR-470-1. Concentrations ranging from 0.1 to 30 micromolar for 48 hr. Viability was measured using Cell titer glo ATP quantification assay. Representative curves for three cell lines at 48 are shown in (FIG. 36A). Table of 20 cell line IC50 values are shown in (FIG. 36B).
Each point in FIG. 37 represents the correlation value (R^2) between cell line IC50 value (i.e. sensitivity) to CBR-470 plotted against the relative mRNA level (Z-score) for that cell line, and all other cell lines in the 20 line panel. mRNA levels were curated from the cancer cell line encyclopedia (CCLE).

[1] = system: NRF2 target genes NQO1 and HMOX1; assay: Quantitative RT-PCR of NRF2 target genes in IMR32 cells; assay type: cell-based; conditions: MGx 1 mM
Experimental: FIG. 2A-F. Methylglyoxal modifies KEAP1 to form a covalent, high molecular weight dimer and activate NRF2 signaling. (a) Time-course, anti-FLAG Western blot analysis of whole cell lysates from HEK293T cells expressing FLAG-KEAP1 treated with DMSO or CBR-470-1. (b) Western blot monitoring of FLAG-KEAP1 migration in HEK293 T lysates after incubation with central glycolytic metabolites in vitro (1 and 5 mM, left and right for each metabolite). (c) FLAG-KEAP1 (red) and β-actin (green) from HEK293T cells treated with MGx (5 mM) for 8 hr. (d) Relative NQO1 and HMOX1 mRNA levels in IMR32 cells treated with MGx (1 mM) or water control (n=3). (e) LC-MS/MS quantitation of cellular MGx levels in IMR32 cells treated with CBR-470-1 relative to DMSO (n=4). (f) ARE-LUC reporter activity in HEK293T cells with transient shRNA knockdown of GLO1 (n=8). Univariate two-sided t-test (d, f); data are mean±SEM of biologically independent samples.
Quantitative RT-PCR. Cells were collected by trypsinization and subsequent centrifugation at 500 g. […] Quantitative RT-PCR reactions were measured on a Viia 7 Real-Time PCR system (Thermo) using a Clontech SYBR green-based master mix. Reactions were normalized to TUBG1 levels for each biological replicate and relative transcript abundance calculated using the comparative Ct method.

Sequence of GAPDH (P04406 whole entry, species assumed): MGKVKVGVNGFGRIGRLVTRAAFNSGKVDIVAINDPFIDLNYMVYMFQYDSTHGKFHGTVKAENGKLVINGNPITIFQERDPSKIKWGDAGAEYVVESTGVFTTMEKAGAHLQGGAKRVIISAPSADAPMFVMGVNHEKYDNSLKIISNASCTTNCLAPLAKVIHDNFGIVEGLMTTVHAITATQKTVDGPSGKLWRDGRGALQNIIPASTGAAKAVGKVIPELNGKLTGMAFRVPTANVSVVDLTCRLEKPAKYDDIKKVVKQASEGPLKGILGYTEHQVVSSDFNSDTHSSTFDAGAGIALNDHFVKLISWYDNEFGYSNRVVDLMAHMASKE

Row | SMILES | GAPDH equilibrium (GAPDH) | sensitivity (IC50) versus GLO1 mRNA level (20 line panel) | sensitivity (IC50) versus NRF2 target gene expression (20 line panel) | expression of NRF2 target genes NQO1 and HMOX1 [1]
1 | CC(C)CN[C@H]1CS(=O)(=O)C[C@@H]1S(=O)(=O)c1ccc(Cl)cc1 [CBR-470-1] | does not affect the GAPDH equilibrium alone | high GLO1 exhibit higher sensitivity | lower NRF2 target gene expression show increased sensitivity | –
2 | CC(=O)C=O [MGx, methylglyoxal, reference compound] | – | – | – | functionally activated expression of the downstream NRF2 target genes NQO1 and HMOX1
